20 molecules from PubChem BioAssay (NCI) can be followed below.

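Dose response: 5 concentrations. Exposure: 48 h. Format: 96-well plates. Endpoint: linear interpolation; highest concentration if not reached. Here, GI50 denotes the concentration required for 50% inhibition of growth. Definition used: TGI = concentration required for complete inhibition of growth.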

Among the test systems are ACHN renal; DMS 114 small cell lung; DMS 273 small cell lung; HOP-62 NSCLC; KM20L2 colon; MOLT-4 leukemia; DLD-1 colon; RXF 393 renal; SNB-75 CNS; HS 578T breast; MCF7 breast; T-47D breast.
What all share (test): DTP human tumour cell line panel, 48 h

As a reminder, the TGI is the concentration giving total growth inhibition. Higher therefore signals less potent growth arrest. On to `CC1=C2C(c3ccccc3)(c3ccccc3)C3C=CC2(C=N3)N(C(=O)NC2CCCCC2)C1=O` (stereo not given), for which the TGI with ACHN renal was found to be 33.8 µM; in the assay on DMS 114 small cell lung, 32.5 µM; in the assay on DMS 273 small cell lung, 33.2 µM; in the assay on HOP-62 NSCLC, 31.7 µM; with KM20L2 colon, 30.6 µM; with MOLT-4 leukemia, 35.8 µM.
Regarding `Cc1cc(C)nc(NS(=O)(=O)c2ccc(NC(=O)c3cccc4cc5ccccc5nc34)cc2)n1`, the total growth inhibition concentration (TGI) with ACHN renal was greater than 100 µM; in the assay on DLD-1 colon it was 98.4 µM; in the assay on DMS 273 small cell lung it was greater than 100 µM; in the assay with HOP-62 NSCLC, greater than 100 µM; with KM20L2 colon, greater than 100 µM; in the assay on MOLT-4 leukemia, greater than 100 µM. Further, the TGI in the assay with RXF 393 renal and in the assay with SNB-75 CNS was greater than 100 µM each time.
In the case of `COc1cc(Br)c(CC2=NCCc3cc(OC)c(OC)cc32)cc1OC`, the concentration for total growth inhibition (TGI) is greater than 100 µM in the assay on ACHN renal; greater than 100 µM with DLD-1 colon; 68.1 µM in the assay on DMS 114 small cell lung; 51.3 µM with DMS 273 small cell lung; greater than 100 µM with HOP-62 NSCLC; greater than 100 µM in the assay on KM20L2 colon. The TGI was 72.5 µM with MOLT-4 leukemia and greater than 100 µM with SNB-75 CNS.
`Cn1c(O)c(C(=O)Nc2ccc([N+](=O)[O-])cc2)c(=O)n(C)c1=S`: the total growth inhibition concentration (TGI) is greater than 27.3 µM with ACHN renal; greater than 35.5 µM in the assay on DLD-1 colon; 4.81 µM in the assay with DMS 114 small cell lung; 4.05 µM in the assay with HOP-62 NSCLC; 5.85 µM in the assay on HS 578T breast; 20.4 µM with KM20L2 colon. The total growth inhibition concentration (TGI) in the assay with MCF7 breast was greater than 100 µM; in the assay on MOLT-4 leukemia it was greater than 100 µM; in the assay with RXF 393 renal, 2.8 µM; in the assay with SNB-75 CNS, 6.37 µM.
As for `Cc1ccc(Nc2ccc(Nc3ccc(C)cc3)c3c2C(=O)c2c(O)ccc(O)c2C3=O)cc1`, the concentration for total growth inhibition (TGI) in the assay on ACHN renal, with DLD-1 colon, with DMS 114 small cell lung, with DMS 273 small cell lung, in the assay with HOP-62 NSCLC and with MOLT-4 leukemia was greater than 100 µM throughout. Also, the TGI in the assay with RXF 393 renal and with SNB-75 CNS was greater than 100 µM each time.
As to `COc1cc(C2C(C(=O)Nc3ccccc3)=C(C)NC(C)=C2C(=O)Nc2ccccc2)ccc1O`, the concentration for total growth inhibition (TGI) in the assay with ACHN renal is greater than 100 µM; in the assay with DLD-1 colon, greater than 100 µM; in the assay with DMS 114 small cell lung, greater than 100 µM; in the assay with HOP-62 NSCLC, greater than 100 µM; with KM20L2 colon it was 40 µM; in the assay on MOLT-4 leukemia it was greater than 100 µM. Also, the TGI in the assay on RXF 393 renal and in the assay on SNB-75 CNS was greater than 100 µM each time.
Turning to `O=c1nc2cc(-c3ccccc3)[nH]c2nn1-c1c(Cl)cc(Cl)cc1Cl`, the TGI was greater than 100 µM in the assay with DLD-1 colon; greater than 100 µM in the assay with DMS 114 small cell lung; greater than 100 µM in the assay on DMS 273 small cell lung; 56.5 µM in the assay on HOP-62 NSCLC; 57.5 µM in the assay with KM20L2 colon; 64.5 µM in the assay with MOLT-4 leukemia.
Regarding `COc1ccc(O)c2c1C(=O)CCCC2=O`, the total growth inhibition concentration (TGI) with ACHN renal, in the assay with DLD-1 colon, in the assay with DMS 114 small cell lung, in the assay on DMS 273 small cell lung, with HOP-62 NSCLC and in the assay with KM20L2 colon was greater than 100 µM throughout. Moreover, the TGI with MOLT-4 leukemia was greater than 100 µM.
Turning to `COc1ccc(C2S/C(=C\c3ccc(OC)cc3OC)C(=O)N2NC(=O)Cc2ccccc2)cc1` (stereo not given), the TGI in the assay with ACHN renal, with DLD-1 colon, with DMS 114 small cell lung, in the assay on DMS 273 small cell lung, in the assay on HOP-62 NSCLC and in the assay with MOLT-4 leukemia was greater than 100 µM in each case. The total growth inhibition concentration (TGI) in the assay on RXF 393 renal and in the assay on SNB-75 CNS was greater than 100 µM each time.
A word on the GI50: it is the concentration at which growth is held to half of that of the control. Take `COc1ccccc1-n1c(SCc2cc(OC)c(OC)c(OC)c2)nc2ccc(Cl)cc2c1=O`: the GI50 in the assay on ACHN renal was 7.07 µM; in the assay with HOP-62 NSCLC it was 9.4 µM; with HS 578T breast it was 5.81 µM; in the assay on MCF7 breast, 0.915 µM; in the assay with MOLT-4 leukemia it was 3.05 µM; with RXF 393 renal, 3.78 µM. The GI50 with SNB-75 CNS was 2.41 µM; with T-47D breast, 4.95 µM. Also, the concentration for total growth inhibition (TGI) in the assay on ACHN renal, with HOP-62 NSCLC, in the assay with HS 578T breast, in the assay on MCF7 breast, in the assay on MOLT-4 leukemia and with RXF 393 renal was greater than 100 µM in each case. For the same molecule, the total growth inhibition concentration (TGI) was 32.7 µM in the assay on SNB-75 CNS and greater than 100 µM in the assay with T-47D breast.
On to `CC#CC(=O)N1CCC[C@H]1c1nc(-c2ccc(C(=O)Nc3ccccn3)cc2)c2c(N)nccn12`, for which the GI50 with ACHN renal is 23.8 µM; in the assay with HOP-62 NSCLC, greater than 100 µM; in the assay with HS 578T breast, greater than 72.5 µM; with MCF7 breast it was 58 µM; in the assay on MOLT-4 leukemia, 44.3 µM; in the assay with RXF 393 renal, 61.7 µM. Also, the values for the GI50 with SNB-75 CNS and with T-47D breast were 24.5 µM and 10.1 µM, respectively. The TGI in the assay with ACHN renal, with HOP-62 NSCLC, with HS 578T breast, in the assay with MCF7 breast, in the assay with MOLT-4 leukemia and in the assay on RXF 393 renal was greater than 100 µM throughout. The total growth inhibition concentration (TGI) in the assay on SNB-75 CNS and with T-47D breast was greater than 100 µM each time.
In the case of `COc1cccc(C2C(C(=O)Nc3cc(=O)n(C)c(=O)n3C)=C(C)NC(C)=C2C(=O)Nc2cc(=O)n(C)c(=O)n2C)c1O`, the TGI in the assay with ACHN renal, in the assay with DLD-1 colon, in the assay on DMS 114 small cell lung, in the assay on HOP-62 NSCLC, in the assay on KM20L2 colon and in the assay on MOLT-4 leukemia was greater than 100 µM in each case. Besides, the TGI with RXF 393 renal and in the assay on SNB-75 CNS was greater than 100 µM throughout.
Turning to `COc1ccccc1/C=C\c1cc(OC)c(OC)c(OC)c1`, the TGI in the assay with ACHN renal was greater than 100 µM; in the assay on DLD-1 colon, greater than 100 µM; in the assay on DMS 114 small cell lung it was greater than 100 µM; in the assay on DMS 273 small cell lung, greater than 100 µM; in the assay on HOP-62 NSCLC it was greater than 100 µM; in the assay on MOLT-4 leukemia it was 98.6 µM. The total growth inhibition concentration (TGI) came to 36.6 µM in the assay with RXF 393 renal and 72.6 µM with SNB-75 CNS.
Take `Cn1ccnc1C(=O)/C=C/c1ccc(C(=O)Nc2nc3ccccc3[nH]2)cc1`: the GI50 with ACHN renal was 11 µM; in the assay with HOP-62 NSCLC it was 6.42 µM; in the assay with HS 578T breast, 5.99 µM; in the assay on MCF7 breast, 0.9 µM; in the assay with MOLT-4 leukemia it was 7.26 µM; with RXF 393 renal it was 4.51 µM. In addition, the GI50 in the assay with SNB-75 CNS is 1 µM; in the assay with T-47D breast, 3.37 µM. Also, the concentration for total growth inhibition (TGI) with ACHN renal, in the assay on HOP-62 NSCLC, with HS 578T breast, with MCF7 breast, in the assay with MOLT-4 leukemia and with RXF 393 renal was greater than 25 µM in each case. Also, the TGI in the assay on SNB-75 CNS was 15.9 µM; with T-47D breast it was greater than 25 µM.
As for `COc1ccc(/C=C2\N=C3SC=C(N)N3C2=O)cc1`, the GI50 in the assay on ACHN renal was 0.711 µM; in the assay on HOP-62 NSCLC it was 2.23 µM; with HS 578T breast it was 1.19 µM; with MCF7 breast, 0.459 µM; in the assay with MOLT-4 leukemia, 0.28 µM; in the assay with RXF 393 renal, 0.303 µM. Moreover, the GI50 in the assay with SNB-75 CNS is 0.757 µM; with T-47D breast, 0.334 µM. Besides, the TGI in the assay with ACHN renal worked out at 2.43 µM; with HOP-62 NSCLC it was 15.7 µM; in the assay on HS 578T breast, 5.56 µM; with MCF7 breast, 6.29 µM; with MOLT-4 leukemia, 2.91 µM; in the assay on RXF 393 renal, 1.58 µM. The TGI amounted to 7.61 µM in the assay on SNB-75 CNS and 14.9 µM with T-47D breast.
Consider `NC(CSC(c1ccccc1)(c1ccccc1)c1ccc2ccccc2c1)C(=O)O` (stereo not given), for which the GI50 in the assay with ACHN renal was 0.911 µM; in the assay on HOP-62 NSCLC it was 0.114 µM; in the assay on HS 578T breast, 0.0267 µM; in the assay on MCF7 breast, 0.0321 µM; in the assay with MOLT-4 leukemia, 0.29 µM; in the assay with RXF 393 renal it was 0.0572 µM. The figures for the concentration for 50% growth inhibition (GI50) in the assay on SNB-75 CNS and in the assay with T-47D breast were 0.121 µM and 0.132 µM, respectively. The total growth inhibition concentration (TGI) in the assay with ACHN renal was 30.8 µM; with HOP-62 NSCLC it was 14.4 µM; with HS 578T breast, 0.0832 µM; in the assay on MCF7 breast, 21.9 µM; in the assay with MOLT-4 leukemia, greater than 33.8 µM; in the assay on RXF 393 renal, 21.5 µM. Moreover, the total growth inhibition concentration (TGI) with SNB-75 CNS is 30.6 µM; in the assay with T-47D breast it was 18 µM.
With `CCOC(=O)C12CC1(C(=O)OCC)C1CCC2C1` (stereo not given), the TGI with ACHN renal, in the assay with DLD-1 colon, in the assay on DMS 114 small cell lung, with DMS 273 small cell lung, with HOP-62 NSCLC and in the assay with MOLT-4 leukemia was greater than 100 µM throughout.
In the case of `CCC1(OC(C)=O)C(=O)OCc2c1cc1n(c2=O)Cc2cc3ccccc3nc2-1` (stereo not given), the TGI is 12.1 µM in the assay with ACHN renal; greater than 100 µM with DLD-1 colon; 11.9 µM with DMS 114 small cell lung; 9.81 µM in the assay on HOP-62 NSCLC; greater than 100 µM in the assay on KM20L2 colon; greater than 22.6 µM in the assay on RXF 393 renal. The TGI in the assay with SNB-75 CNS was greater than 44.6 µM.
Regarding `COc1ccc2c(c1)CC[C@@H]1C2CC[C@]2(C)C(=O)NC(=O)CC12` (stereo not given in full), the total growth inhibition concentration (TGI) with ACHN renal, in the assay with DLD-1 colon, with DMS 273 small cell lung, in the assay on HOP-62 NSCLC, with KM20L2 colon and in the assay on MOLT-4 leukemia was greater than 100 µM in each case.
As for `Fc1ccc(-c2ncn(C3CCNCC3)c2-c2ccnc(Oc3cccc(F)c3)n2)cc1`, the GI50 was 8.58 µM with ACHN renal; greater than 21.8 µM with HOP-62 NSCLC; greater than 12 µM with HS 578T breast; 7.38 µM in the assay on MCF7 breast; 12.7 µM in the assay with MOLT-4 leukemia; 5.32 µM in the assay with RXF 393 renal. Besides, the GI50 in the assay with SNB-75 CNS was 14.8 µM; with T-47D breast it was 13.8 µM. Further, the concentration for total growth inhibition (TGI) was greater than 25 µM in the assay on ACHN renal; greater than 25 µM in the assay with HOP-62 NSCLC; 24.8 µM in the assay on HS 578T breast; greater than 20.4 µM with MCF7 breast; greater than 25 µM with MOLT-4 leukemia; greater than 13.3 µM in the assay with RXF 393 renal. In addition, the TGI in the assay on SNB-75 CNS and in the assay on T-47D breast was greater than 25 µM throughout.
